Assay results published in the supplement of paper PMC10307832.

Columns and labels:
Assay in all cases: relative viability (nuclei count vs DMSO), 5 days (fraction); higher = more cells survive
Apatinib + Trametinib = compound: N#CC1(c2ccc(NC(=O)c3cccnc3NCc3ccncc3)cc2)CCCC1 [Apatinib] + CC(=O)Nc1cccc(-n2c(=O)n(C3CC3)c(=O)c3c(Nc4ccc(I)cc4F)n(C)c(=O)c(C)c32)c1 [Trametinib] (partner 0.02 µM)
Outline: (§1)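 Values are medians from duplicate plates. Each reflects relative viability, defined as the nuclei count of treated wells over that of vehicle wells. Lung cancer cell lines in 1536-well plates were pin-tool dosed one day after seeding with one drug alone or with a fixed anchor-drug dose plus five library-drug doses (not always all listed) in √10 steps, then fixed, stained and imaged at 4× after 5 days.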

Apatinib + Foretinib = compound: N#CC1(c2ccc(NC(=O)c3cccnc3NCc3ccncc3)cc2)CCCC1 [Apatinib] + COc1cc2c(Oc3ccc(NC(=O)C4(C(=O)Nc5ccc(F)cc5)CC4)cc3F)ccnc2cc1OCCCN1CCOCC1 [Foretinib] (partner 0.25 µM)
Outline: as §1

Metformin + Pemetrexed = compound: CN(C)C(=N)NC(=N)N [Metformin] + Nc1nc2[nH]cc(CCc3ccc(C(=O)N[C@@H](CCC(=O)O)C(=O)O)cc3)c2c(=O)[nH]1 [Pemetrexed] (partner 0.2 µM)
Outline: as §1

Metformin + Decitabine = compound: CN(C)C(=N)NC(=N)N [Metformin] + Nc1ncn([C@H]2C[C@H](O)[C@@H](CO)O2)c(=O)n1 [Decitabine] (partner 2 µM)
Outline: as §1

NCI-H460
relative viability (Apatinib + Trametinib; first compound 0.08 µM): 0.119
relative viability (Apatinib + Trametinib; first compound 0.253 µM): 0.172
relative viability (Apatinib + Trametinib; first compound 0.8 µM): 0.223
relative viability (Apatinib + Trametinib; first compound 2.53 µM): 0.134
relative viability (Apatinib + Trametinib; first compound 8 µM): 0.128
relative viability (Apatinib + Foretinib; first compound 0.08 µM): 0.941
relative viability (Apatinib + Foretinib; first compound 0.253 µM): 0.943
relative viability (Apatinib + Foretinib; first compound 0.8 µM): 0.942
relative viability (Apatinib + Foretinib; first compound 2.53 µM): 1.04
relative viability (Apatinib + Foretinib; first compound 8 µM): 0.897
relative viability (Metformin + Pemetrexed; first compound 31.62 µM): 0.0599
relative viability (Metformin + Pemetrexed; first compound 100 µM): 0.0625
relative viability (Metformin + Pemetrexed; first compound 316.23 µM): 0.0535
relative viability (Metformin + Pemetrexed; first compound 1000 µM): 0.0639
relative viability (Metformin + Decitabine; first compound 31.62 µM): 0.444
relative viability (Metformin + Decitabine; first compound 100 µM): 0.493
relative viability (Metformin + Decitabine; first compound 316.23 µM): 0.412
relative viability (Metformin + Decitabine; first compound 1000 µM): 0.469
